Laboratory results published in US11446262B2, “Neuroquiescence—a treatment for neurodevelopmental and neurodegenerative bioelectrical dysregulation and demyelination” (priority 2018, dated 2022).
Entries after “also recorded” stand apart in the source; their conditions may differ.

Assays:
[1] = tested on: patients with seizures (Epilepsy); test: Use of Dobutamine in seizure patients before the sedation session (adults); assay type: in vivo, human
Excerpt: We alternate weeks between the Neurokinin-2 (Nk2) versus the Dobutamine Infusion (Dob). We are limited to four doses of Neurokinin 2, so we distribute them among the Dobutamine doses to maximize the Neurokinin-2 counterinflammation. We use no Dobutamine on the day before or after the day of Neurokinin-2.
The traditional “intractable” Epilepsy concept is overcome by use of Dobutamine, which is about cerebrovascular bloodflow, not about suppression of seizures. Dobutamine outperforms antiseizure medications because it addresses the true root-cause of seizures.

[2] = tested on: children with Epilepsy (seizures, neuronal agitation noise on EEG); test: Neuroquiescence protocol (Dobutamine preparation plus sustained sedation) in children with Epilepsy, hospital case series; assay type: in vivo, human
[3] = Absorption of Midazolam administered by IV
[4] = tested on: seizure and Grand mal seizure; test: Midazolam IV for termination of seizure; assay type: in vivo, human; details: IV 0.2 mg/kg (Maximum 10 mg)
[5] = tested on: children with seizures and agitated bioelectrical brain activity; set-up: species or system human; details: in vivo
[6] = tested on: patients (allergic reaction); test: Anesthesia allergy test before the Neuroquiescence session

Structure (SMILES)	seizure status of adults previously taking multiple antiseizure medications ([1]; intravenous Dobutamine, before sedation session)	performance versus antiseizure medication ([1]; neuronal agitation still present during weeks of microvascular preparation)	time to seizure-free ([1]; one adult with unmanageable morning seizures for fifteen years)	neuronal agitation on EEG ([1]; same adult, a few more months, all antiseizure medications removed)	children having no neuronal agitation noise, never returns ([2]; after week-six Neuroquiescence sedation session, Dobutamine continued)	children with no seizures but neuronal agitation noise still present ([2]; weeks two through five, Pre-Neuroquiescence preparation on Dobutamine, no antiseizure medication)	absorption [3]	termination of frequency of seizure and Grand mal seizure [4]	EEG monitoring and Brainscans [5]	symptoms of seizures and agitated bioelectrical brain activity [5]	symptoms of seizures and bioelectrical brain activity after Neuroquiescence [5]	patients allergic in allergy test [6]
CC(CCc1ccc(O)cc1)NCCc1ccc(O)c(O)c1 (stereo not drawn) [Dobutamine]	become seizure free	consistently outperformed their antiseizure medication	seizure-free in less than one month	no neuronal agitation measurable at EEG sensitivities	over 95%	about 80%	–	–	–	–	–	–
Cc1ncc2n1-c1ccc(Cl)cc1C(c1ccccc1F)=NC2 [Midazolam]	–	–	–	–	–	–	well absorbed	effective	became normal	resolved	partial improvement; also recorded: resolved	approximately 5%
